Publication PMC10353549 (ACS Pharmacology & Translational Science, 2023)
Where “and” joins values, the source holds several entries; their conditions need not be identical. Equal values may be shown once. Read-outs that look alike come from different tables or passages of the source. Marks after values point to notes of the source that are not given here. Each block holds one compound with its values, some of them ahead of it. Where a SMILES comes first, the peptide text is derived from it. [ ]: non-standard residue; d: D form. The star is where a group is joined. 1Nal = N[C@@H](Cc1cccc2ccccc12)C(=O)O; Nicotinoyl(6-F) = O=C(c1ccc(F)nc1)*; Cha = N[C@@H](CC1CCCCC1)C(=O)O; NMeS = CN[C@@H](CO)C(=O)O; hSer = N[C@@H](CCO)C(=O)O; Nle = CCCC[C@H](N)C(=O)O; Octanoyl = CCCCCCCC(=O)*; Abu = CC[C@H](N)C(=O)O; Dap = NC[C@H](N)C(=O)O; Inp = O=C(O)C1CCNCC1

Tests used:
[1] = Human liver S9 fraction stability; format: in vitro ADME; settings: for half-life at 3 μM: human, pooled human liver S9 fraction
[2] = target: T1, growth hormone secretagogue receptor 1a (GHSR) (Homo sapiens, UniProt Q92847); assay: biochemical
[3] = human serum from human male AB plasma; settings: 37 °C, up to 24 h
[4] = Human serum stability; format: in vitro ADME
[5] = target: GHSR (Homo sapiens, UniProt Q92847); assay: cell-based
[6] = target: growth hormone secretagogue receptor 1a, eYFP tagged (GHSR-eYFP) (UniProt Q92847); assay: radioligand binding
[7] = Chemical stability in buffer; format: physicochemical; settings: for chemical stability in buffer: 37 °C, over 24 h
[8] = human serum; cited from earlier work
[9] = target: T1, growth hormone secretagogue receptor 1a (GHSR); settings: read-out: IC50 (GHSR affinity); previous work; cited from earlier work
Target sequence in this assay (Q92847 whole entry, species assumed): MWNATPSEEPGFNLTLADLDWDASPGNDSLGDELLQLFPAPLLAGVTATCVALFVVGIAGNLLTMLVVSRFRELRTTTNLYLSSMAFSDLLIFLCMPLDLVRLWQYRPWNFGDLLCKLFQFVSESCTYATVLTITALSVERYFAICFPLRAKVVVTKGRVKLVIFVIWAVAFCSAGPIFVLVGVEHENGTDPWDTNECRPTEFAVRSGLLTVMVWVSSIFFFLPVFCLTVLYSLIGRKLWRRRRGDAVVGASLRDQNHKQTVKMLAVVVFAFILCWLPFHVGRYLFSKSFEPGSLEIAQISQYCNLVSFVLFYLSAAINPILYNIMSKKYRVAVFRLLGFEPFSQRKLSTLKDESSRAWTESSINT

[10] = pH 7.4, S9 t1/2, pooled human liver S9 fraction 1 mg/mL, peptide 3 μM, 37 °C, over 4 h
[11] = human liver S9 fraction, over 4 h

Chain of GHSR (Q92847 whole entry, species assumed): as above
Chain of growth hormone secretagogue receptor 1a, eYFP tagged (GHSR-eYFP) (Q92847 whole entry): as the sequence (Q92847 whole entry, species assumed) above

Compound: CC(C)C[C@H](NC(=O)[C@H](Cc1cccc2ccccc12)NC(=O)[C@H](CNC(=O)c1ccc(F)nc1)NC(=O)[C@H](CO)NC(=O)C1CCNCC1)C(=O)N[C@@H](CS)C(=O)N1CCC[C@H]1C(=O)N[C@H](C(N)=O)[C@@H](C)O [compound 15, Inp-S-Dpr(6-FN)-1Nal-LCPT-NH2] (H-[Inp]S[Dap](Nicotinoyl(6-F))[1Nal]LCPT-NH2)
half-life at 3 μM [1, 10]: 0.95 h
IC50 [2]: 7.15 ± 0.18 nM

not cleaved [3]: full stability over 24 h
Compound: Inp-S-Dpr(6-FN)-1Nal-L-Dpr-PT-NH2

Compound: CC(C)C[C@H](NC(=O)[C@H](Cc1cccc2ccccc12)NC(=O)[C@H](CNC(=O)c1ccc(F)nc1)NC(=O)[C@H](CO)NC(=O)C1CCNCC1)C(=O)N(C)[C@@H](CO)C(=O)N1CCC[C@H]1C(=O)N[C@H](C(N)=O)[C@@H](C)O [compound 22, Inp-S-Dpr(6-FN)-1Nal-L-S(N-Me)-PT-NH2] (H-[Inp]S[Dap](Nicotinoyl(6-F))[1Nal]L[NMeS]PT-NH2)
stability in human liver S9 fraction [1, 11]: stable
half-life at 3 μM [1, 10]: > 4 h
IC50 [2]: 1.32 ± 0.58 nM
stability in human serum ([4]; human serum, over 24 h): stable
EC50 [5]: 119 nM

Compound: CC[C@H](NC(=O)[C@H](CC(C)C)NC(=O)[C@H](Cc1cccc2ccccc12)NC(=O)[C@H](CNC(=O)c1ccc(F)nc1)NC(=O)[C@H](CO)NC(=O)C1CCNCC1)C(=O)N1CCC[C@H]1C(=O)N[C@H](C(N)=O)[C@@H](C)O [compound 20, Inp-S-Dpr(6-FN)-1Nal-L-Abu-PT-NH2] (H-[Inp]S[Dap](Nicotinoyl(6-F))[1Nal]L[Abu]PT-NH2)
half-life at 3 μM [1, 10]: 0.46 h
IC50 [2]: 2.54 ± 0.65 nM
EC50 [5]: 30 nM

not cleaved [3]: stable; serum t1/2 >24 h
Compound: Inp-S-Dpr(6-FN)-1Nal-L-S(N-Me)-PT-NH2

Compound: CC(C)C[C@H](NC(=O)[C@H](Cc1cccc2ccccc12)NC(=O)[C@H](CNC(=O)c1ccc(F)nc1)NC(=O)[C@H](CO)NC(=O)C1CCNCC1)C(=O)N[C@@H](CCC(N)=O)C(=O)N1CCC[C@H]1C(=O)N[C@H](C(N)=O)[C@@H](C)O [compound 19, Inp-S-Dpr(6-FN)-1Nal-LQPT-NH2] (H-[Inp]S[Dap](Nicotinoyl(6-F))[1Nal]LQPT-NH2)
half-life at 3 μM [1, 10]: 2.03 h
IC50 [2]: 1.21 ± 0.12 nM

not cleaved [3]: completely stable; serum t1/2 >24 h
Compound: Inp-S-Dpr(6-FN)-1Nal-lSPT-NH2

Compound: CC(C)C[C@H](NC(=O)[C@H](Cc1cccc2ccccc12)NC(=O)[C@H](CNC(=O)c1ccc(F)nc1)NC(=O)[C@H](CO)NC(=O)C1CCNCC1)C(=O)N[C@H](C(=O)N1CCC[C@H]1C(=O)N[C@H](C(N)=O)[C@@H](C)O)[C@@H](C)O [compound 16, Inp-S-Dpr(6-FN)-1Nal-LTPT-NH2] (H-[Inp]S[Dap](Nicotinoyl(6-F))[1Nal]LTPT-NH2)
half-life at 3 μM [1, 10]: 1.25 h
IC50 [2]: 0.62 ± 0.1 nM

Compound: CC(C)C[C@H](NC(=O)[C@H](Cc1cccc2ccccc12)NC(=O)[C@H](CNC(=O)c1ccc(F)nc1)NC(=O)[C@H](CO)NC(=O)C1CCNCC1)C(=O)N[C@@H](C(=O)N1CCC[C@H]1C(=O)N[C@H](C(N)=O)[C@@H](C)O)[C@H](C)O [compound 12, Inp-S-Dpr(6-FN)-1Nal-LtPT-NH2] (H-[Inp]S[Dap](Nicotinoyl(6-F))[1Nal]L[dT]PT-NH2)
half-life at 3 μM [1, 10]: > 4 h
IC50 [2]: 2.52 ± 0.32 nM

IC50 [6]: 11.5 nM
Compound: ghrelin(1–8) analogue 11, Inp-S-Dpr(6-FN)-1Nal-lsPT-NH2 (peptide)

Compound: CCCCCCCC(=O)NC[C@H](NC(=O)[C@H](CO)NC(=O)CN)C(=O)N[C@@H](Cc1ccccc1)C(=O)N[C@@H](CC(C)C)C(=O)N[C@@H](CO)C(=O)N1CCC[C@H]1C(=O)N[C@@H](CCC(=O)O)C(=O)O [compound 2, [Dpr^3(n-octanoyl)]ghrelin(1–8)] (H-GS[Dap](Octanoyl)FLSPE-OH)
half-life at 3 μM ([1]; pH 7.4): 0.57 h
chemical stability in buffer [7]: chemically stable
Serum t1/2 ([4]; 25% human serum in PBS pH 7.4, 37 °C, peptide 1 mM, over 24 h): 2.0 h
time after which peptide was completely degraded in human serum ([4]; human serum, 37 °C): 6 h

IC50 [6]: 2.48 nM
Compound: acylated human ghrelin(1–28) (ligand)

Compound: CCCC[C@H](NC(=O)[C@H](Cc1cccc2ccccc12)NC(=O)[C@H](CNC(=O)c1ccc(F)nc1)NC(=O)[C@H](CO)NC(=O)C1CCNCC1)C(=O)N[C@@H](CO)C(=O)N1CCC[C@H]1C(=O)N[C@H](C(N)=O)[C@@H](C)O [compound 13, Inp-S-Dpr(6-FN)-1Nal-Nle-SPT-NH2] (H-[Inp]S[Dap](Nicotinoyl(6-F))[1Nal][Nle]SPT-NH2)
half-life at 3 μM [1, 10]: 0.55 h
IC50 [2]: 1.5 ± 0.27 nM

Compound: C[C@@H](O)[C@H](NC(=O)[C@@H]1CCCN1C(=O)[C@H](CO)NC(=O)[C@H](CC1CCCCC1)NC(=O)[C@H](Cc1cccc2ccccc12)NC(=O)[C@H](CNC(=O)c1ccc(F)nc1)NC(=O)[C@H](CO)NC(=O)C1CCNCC1)C(N)=O [compound 14, Inp-S-Dpr(6-FN)-1Nal-Cha-SPT-NH2] (H-[Inp]S[Dap](Nicotinoyl(6-F))[1Nal][Cha]SPT-NH2)
half-life at 3 μM [1, 10]: 1.18 h
IC50 [2]: 1.88 ± 0.67 nM

IC50 [6]: 0.32 nM
Compound: ghrelin(1–8) analogue 21, Inp-S-Dpr(6-FN)-1Nal-L-Dpr-PT-NH2 (peptide)

Compound: CC(C)C[C@@H](NC(=O)[C@H](Cc1cccc2ccccc12)NC(=O)[C@H](CNC(=O)c1ccc(F)nc1)NC(=O)[C@H](CO)NC(=O)C1CCNCC1)C(=O)N[C@@H](CO)C(=O)N1CCC[C@H]1C(=O)N[C@H](C(N)=O)[C@@H](C)O [compound 9, Inp-S-Dpr(6-FN)-1Nal-lSPT-NH2] (H-[Inp]S[Dap](Nicotinoyl(6-F))[1Nal][dL]SPT-NH2)
stability in human liver S9 fraction [1, 11]: completely stable
half-life at 3 μM [1, 10]: > 4 h
IC50 [2]: 56.5 ± 6.5 nM
stability in human serum ([4]; human serum, over 24 h): completely stable

cleaved bond [3]: Leu5-Ser6, first_seen, 30 min
fragment found [3]: 4; 1Nal-L-OH and 5; Inp-S-Dpr(6-FNA)-OH
Compound: Inp-S-Dpr(6-FN)-1Nal-LSPT-NH2

Compound: CC(C)C[C@H](NC(=O)[C@H](Cc1cccc2ccccc12)NC(=O)[C@H](CNC(=O)c1ccc(F)nc1)NC(=O)[C@H](CO)NC(=O)C1CCNCC1)C(=O)N[C@@H](CCO)C(=O)N1CCC[C@H]1C(=O)N[C@H](C(N)=O)[C@@H](C)O [compound 17, Inp-S-Dpr(6-FN)-1Nal-L-Hse-PT-NH2] (H-[Inp]S[Dap](Nicotinoyl(6-F))[1Nal]L[hSer]PT-NH2)
half-life at 3 μM [1, 10]: 1.4 h
IC50 [2]: 1.43 ± 0.08 nM

Compound: CC(C)C[C@H](NC(=O)[C@H](Cc1cccc2ccccc12)NC(=O)[C@H](CNC(=O)c1ccc(F)nc1)NC(=O)[C@H](CO)NC(=O)C1CCNCC1)C(=O)N[C@H](CO)C(=O)N1CCC[C@H]1C(=O)N[C@H](C(N)=O)[C@@H](C)O [compound 10, Inp-S-Dpr(6-FN)-1Nal-LsPT-NH2] (H-[Inp]S[Dap](Nicotinoyl(6-F))[1Nal]L[dS]PT-NH2)
half-life at 3 μM [1, 10]: > 4 h
IC50 [2]: 3.55 ± 0.25 nM

Compound: CC(C)C[C@H](NC(=O)[C@H](Cc1cccc2ccccc12)NC(=O)[C@H](CNC(=O)c1ccc(F)nc1)NC(=O)[C@H](CO)NC(=O)C1CCNCC1)C(=O)N[C@@H](CC(N)=O)C(=O)N1CCC[C@H]1C(=O)N[C@H](C(N)=O)[C@@H](C)O [compound 18, Inp-S-Dpr(6-FN)-1Nal-LNPT-NH2] (H-[Inp]S[Dap](Nicotinoyl(6-F))[1Nal]LNPT-NH2)
half-life at 3 μM [1, 10]: > 4 h
IC50 [2]: 1.9 ± 0.56 nM

Compound: CC(C)C[C@H](NC(=O)[C@H](Cc1cccc2ccccc12)NC(=O)[C@H](CNC(=O)c1ccc(F)nc1)NC(=O)[C@H](CO)NC(=O)C1CCNCC1)C(=O)N[C@@H](CO)C(=O)N1CCC[C@H]1C(=O)N[C@H](C(N)=O)[C@@H](C)O [compound 1, [Inp^1,Dpr^3(6-FN),1Nal^4,Thr^8]ghrelin(1–8) amide] (H-[Inp]S[Dap](Nicotinoyl(6-F))[1Nal]LSPT-NH2)
time after which peptide was completely degraded in human liver S9 fraction ([1]; human liver S9 fraction, 37 °C): 4 h
half-life at 3 μM [1, 10]: 1.1 h
S9 t1/2 ([1]; pooled human liver S9 fraction 1 mg/mL, peptide 3 μM, 37 °C, over 4 h): 1.08 h
chemical stability in buffer [7]: chemically stable
remaining at 24 h, 1 mM ([7]; phosphate-buffered saline, pH 7.4): 100%
IC50 [2]: 0.09 nM
Serum t1/2 [8]: 4.7 ^a h
IC50 [9]: 0.11 nM
EC50 [5]: 8 nM

IC50 [6]: 2.11 nM
Compound: ghrelin(1–8) analogue 23, Inp-S-Dpr(6-FN)-1Nal-β-homoL-SPT-NH2 (peptide)
